Measurements as given in publication PMC6331910, “The Curcumin Analogue 1,5-Bis(2-hydroxyphenyl)-1,4-pentadiene-3-one Induces Apoptosis and Downregulates E6 and E7 Oncogene Expression in HPV16 and HPV18-Infected Cervical Cancer Cells” (Molecules, 2015).

How the values were obtained:
MRC9 = assay: MTT cell viability (cytotoxicity) assay on non-cancerous lung fibroblasts, 72 h; format: cell-based; conditions: Homo sapiens, MRC9; MTT, 72 h, non-cancerous lung fibroblasts; read-out: EC50 (Mean ± S.E.M.) MRC9
Description: HeLa, CaSki and MRC9 cells were plated in triplicate wells in 96-well flat-bottomed tissue culture plates (Nunc, Roskilde, Denmark) with 10^5 cells per mL in 100 μL culture media with working concentrations of diarylpentanoid treatment ranging from 1.6 to 100 μM. Control-treated wells contained cells incubated in media with equal volumes of DMSO (0.2%). Cells were treated for 72 h for dose-dependent cytotoxicity assays and at 24, 48 and 72 h for anti-proliferative (time-dependent) assays. In order to assess cell viability and anti-proliferative activity after diarylpentanoid treatment, the colorimetric 3-(4,5-dimethylthiazol-2-yl)-2,5-diphenyltetrazolium bromide (MTT) assay was performed as previously described with modifications. The media was aspirated and cells were incubated in 100 µL complete medium with 0.5 mg/mL MTT solution for 4 h in the dark to allow metabolism of MTT by cellular mitochondrial dehydrogenases. The excess MTT was aspirated and the formazan crystals formed were dissolved by the addition of 100 µL of DMSO. The absorbance of dark blue formazan was read at 570/650 nm wavelengths using a microplate reader (Bio-Rad Benchmark Plus Microplate Spectrophotometer, Hercules, CA, USA). Triplicate absorbance values were averaged and the effect of the compounds on growth inhibition was assessed as percentage cell viability as follows: (1) Percentage cell viability =Absorbance of Test − Absorbance of Blank (media only)/Absorbance of Control − Absorbance of Blank (media only) × 100 where, absorbance = optical density of sample, O.D.; control = untreated sample; test = treated sample.
The results were analysed using GraphPad Prism version 6.00 for Windows (GraphPad Software, La Jolla, CA, USA). Using percentage cell viability Equation (1), log dose–response curves were constructed, from which the half maximal effective concentration, EC50 for each replicate was determined. Overall EC50 was determined by taking the average EC50 from three independent experiments. […] (3) Selectivity Index (SX) =EC50 (MRC9)/EC50 (Cancer cell line) × 100

CaSki = assay: Acridine orange/ethidium bromide double staining, quantification of viable, apoptotic and necrotic cells; format: cell-based, human
Description: (§1) HeLa, 9 μM] at various time points. Each experiment included a set of untreated control cells (Media with DMSO alone). Double staining with acridine orange and ethidium bromide and consequently fluorescent microscopic analysis is an established method by which to distinguish between viable, necrotic and apoptotic cells. […] Following treatment, the cells were pelleted, washed twice in 1× PBS and resuspended in 50 μL 1× PBS. 1 μL of dye mixture (1 part 100 μg/mL acridine orange in PBS and 1 part 100 μg/mL ethidium bromide in PBS) was added to 10 μL of cell suspension and the entire volume was placed on a clean microscope slide. Cells were examined by fluorescence microscopy using the fluorescein filter (BX41, Olympus, Melville, NY, USA) and were distinguished via the morphological aspect of chromatin condensation in stained nuclei as previously established. A minimum of 200 cells were counted per sample and the percentage of cells from each population (viable, live apoptotic, dead apoptotic, necrotic) was calculated.

HeLa = assay: as above; format: cell-based, human
Description: as §1

[1] = tested on: caspase-3 activity in CaSki cells; assay: Caspase-3 colorimetric assay (relative caspase-3 activity); format: cell-based, human
Description: (§2) HeLa, 9 μM] at various time points. Each experiment included a set of untreated control cells (Media with DMSO alone). Caspase-3 activity was assessed using the Caspase-3 Colorimetric Assay Kit (Sigma Aldrich), following the manufacturer’s instructions. […] Following treatment, the cells were washed in PBS and suspended in a lysis buffer (50 mM HEPES pH 7.4, 5 mM CHAPS, 5 mM DTT) for 25 min at a concentration of 10^7 cells per 100 μL of buffer. Lysed cells were centrifuged at 16,000× g, 4 °C for 30 min. Lysate protein concentration was determined using the Cayman Chemical Protein Determination (Cayman Chemical Company, Ann Arbor, MI, USA) kit which is a colorimetric method for total protein quantification based on the Bradford method. In short, 100 μL of protein samples was diluted in 96-well plates and 100 μL of the assay reagent was added to the samples, incubated for 5 min and the absorbance measured at 595 nm. Protein concentrations were calculated from a regression line fit to a series of standard protein dilutions assays on the same plate as the unknown samples. […] The effect of Ac-DEVD-CHO, a caspase-3 inhibitor, on caspase-3 activity was studied simultaneously. As per the manufacturer’s instructions, 10 μL of the inhibitor Ac-DEVD-CHO (200 μM) was added to a well containing the assay buffer, followed immediately by the cell lysate and 10 μL of the substrate Ac-DEVD-pNA (2 mM). Caspase-3 activity was assessed by measuring the absorbance released by the pNA molecule at 405 nm using a Bio-Rad Benchmark Plus Microplate Spectrophotometer. Caspase-3 activity was expressed by measuring the ratio of the mean caspase-3 activity of treated cells relative to untreated cells.

[2] = tested on: caspase-3 activity in HeLa cells; assay: as above; format: cell-based, human; conditions: all time points and doses (3, 6, 9 μM)
Description: as §2

O=C(C=Cc1ccccc1O)C=Cc1ccccc1O [MS17, 1,5-bis(2-hydroxyphenyl)-1,4-pentadiene-3-one]
EC50 (MRC9): 4.6 ± 1.2 µM
early apoptotic cells (CaSki; 2 µM, 24 h): 10%
early apoptotic cells (CaSki; 2 µM, 48 h): 20%
early apoptotic cells (CaSki; 4 µM, 24 h): 85%
early apoptotic cells (CaSki; 4 μM, 48 h): 75%
early apoptotic cells (CaSki; 6 µM, 24 h): 55%
necrotic cells (CaSki; 6 µM, 24 h): 30%
early apoptotic cells (CaSki; 6 µM, 48 h): 30%
necrotic cells (CaSki; 6 µM, 48 h): 50%
necrotic cells (CaSki; 2 and 4 µM, 24 and 48 h): ~ 10%
viable cells (CaSki; 24 h, end of dose-dependent decrease (2–6 µM)): less than 5%
viable cells (CaSki; 48 h, with increasing treatment dose (2–6 µM)): less than 5%
early apoptotic cells (HeLa; 3 µM, 24 h): 40%
early apoptotic cells (HeLa; 3 µM, 48 h): 50%
necrotic cells (HeLa; 3 µM, throughout the treatment period (24 and 48 h)): approximately 10%
early apoptotic cells (HeLa; 6 µM, 24 h): 60%
early apoptotic cells (HeLa; 6 µM, 48 h): 30%
necrotic cells (HeLa; 6 µM, throughout the treatment period (24 and 48 h)): approximately 25%
early apoptotic cells (HeLa; 9 µM, 24 h): 50%
necrotic cells (HeLa; 9 µM, 24 h): 40%
early apoptotic cells (HeLa; 9 µM, 48 h): 10%
necrotic cells (HeLa; 9 µM, 48 h): 50%
viable cells (HeLa; 24 h, end of dose-dependent decrease (3–9 µM)): less than 10%
viable cells (HeLa; 48 h, with increasing treatment dose (3–9 µM)): less than 5%
late apoptotic cells (HeLa; all treatment doses, 24 h): ≤ 10%
relative caspase-3 activity ([1]; 2 μM): low caspase-3 activity
relative caspase-3 activity ([1]; 4 μM, 48 h): increased activity
relative caspase-3 activity ([1]; 6 μM, 24 h, treated over untreated): threefold increase
relative caspase-3 activity [2]: no significant differences
